Experimental data reported in US20250346616A1 (DIZAL (JIANGSU) PHARMACEUTICAL CO., LTD., priority 2022, published 2025).

How the values were obtained:
Recombinant ROCK1 = Recombinant ROCK1 (Homo sapiens (Human), UniProt Q13464); assay: Lance Ultra Kinase Assay, ROCK1 inhibition; type: biochemical; details: ATP at Km, 30 min pre-incubation, 1 h reaction
Recombinant ROCK2 = Recombinant ROCK2 (Homo sapiens (Human), UniProt O75116); assay: Lance Ultra Kinase Assay, ROCK2 inhibition; type: biochemical; details: ATP at Km, 30 min pre-incubation, 1 h reaction
Sequence of Recombinant ROCK2 (O75116 whole entry): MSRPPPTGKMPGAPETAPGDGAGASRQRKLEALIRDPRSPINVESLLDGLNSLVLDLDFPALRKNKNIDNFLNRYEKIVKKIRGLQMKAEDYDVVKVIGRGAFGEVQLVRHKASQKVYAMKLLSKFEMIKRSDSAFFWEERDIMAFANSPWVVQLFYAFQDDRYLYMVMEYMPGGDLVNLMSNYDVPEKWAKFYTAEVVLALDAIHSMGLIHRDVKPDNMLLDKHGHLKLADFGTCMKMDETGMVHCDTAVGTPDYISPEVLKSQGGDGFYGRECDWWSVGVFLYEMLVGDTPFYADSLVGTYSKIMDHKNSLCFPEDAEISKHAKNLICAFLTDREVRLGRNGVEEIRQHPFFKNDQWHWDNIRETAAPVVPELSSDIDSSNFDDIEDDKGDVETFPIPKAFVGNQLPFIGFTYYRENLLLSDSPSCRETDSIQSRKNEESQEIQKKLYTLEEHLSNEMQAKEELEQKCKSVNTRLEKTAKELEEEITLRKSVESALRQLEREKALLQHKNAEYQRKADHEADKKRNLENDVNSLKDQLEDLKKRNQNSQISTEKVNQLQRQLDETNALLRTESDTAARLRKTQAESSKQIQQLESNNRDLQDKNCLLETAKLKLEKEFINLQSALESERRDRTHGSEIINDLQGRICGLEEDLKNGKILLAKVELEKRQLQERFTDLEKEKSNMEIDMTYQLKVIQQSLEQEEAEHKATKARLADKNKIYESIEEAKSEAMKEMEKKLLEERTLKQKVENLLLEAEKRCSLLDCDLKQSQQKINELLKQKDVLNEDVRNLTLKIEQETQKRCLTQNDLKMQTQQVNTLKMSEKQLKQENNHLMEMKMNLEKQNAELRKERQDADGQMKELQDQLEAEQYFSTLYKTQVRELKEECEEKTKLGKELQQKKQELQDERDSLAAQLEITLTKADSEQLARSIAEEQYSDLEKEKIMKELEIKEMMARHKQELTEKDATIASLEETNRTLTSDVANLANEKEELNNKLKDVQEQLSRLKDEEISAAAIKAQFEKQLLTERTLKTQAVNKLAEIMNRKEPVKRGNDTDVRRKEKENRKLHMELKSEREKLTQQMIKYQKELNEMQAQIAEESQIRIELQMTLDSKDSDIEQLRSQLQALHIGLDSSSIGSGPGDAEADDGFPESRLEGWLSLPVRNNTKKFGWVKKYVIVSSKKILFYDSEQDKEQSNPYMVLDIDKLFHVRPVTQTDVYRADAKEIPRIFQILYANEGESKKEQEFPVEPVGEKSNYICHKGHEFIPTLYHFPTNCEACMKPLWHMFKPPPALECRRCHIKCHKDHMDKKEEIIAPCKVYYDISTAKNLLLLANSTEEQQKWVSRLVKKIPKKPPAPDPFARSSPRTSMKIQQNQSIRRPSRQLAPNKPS
Experimental: The inhibition potency of compounds against these enzymes was assessed using Lance Ultra Kinase Assay. In brief, recombinant kinases were pre-incubated in the presence or absence of compound at room temperature for 30 minutes. The reaction was initiated by the addition of the ATP (Km) and substrate peptide which could be phosphorylated by kinases in the reaction. After 1 h incubation, the reaction was stopped by the addition of the detection reagent mix containing EDTA. The fluorescence was measured at 615 nm and 665 nm, respectively with excitation wavelength at 320 nm. The calculated signal ratio of 665 nm/615 nm is proportional to the kinase activity.

Sequence of Recombinant ROCK1 (Q13464 whole entry): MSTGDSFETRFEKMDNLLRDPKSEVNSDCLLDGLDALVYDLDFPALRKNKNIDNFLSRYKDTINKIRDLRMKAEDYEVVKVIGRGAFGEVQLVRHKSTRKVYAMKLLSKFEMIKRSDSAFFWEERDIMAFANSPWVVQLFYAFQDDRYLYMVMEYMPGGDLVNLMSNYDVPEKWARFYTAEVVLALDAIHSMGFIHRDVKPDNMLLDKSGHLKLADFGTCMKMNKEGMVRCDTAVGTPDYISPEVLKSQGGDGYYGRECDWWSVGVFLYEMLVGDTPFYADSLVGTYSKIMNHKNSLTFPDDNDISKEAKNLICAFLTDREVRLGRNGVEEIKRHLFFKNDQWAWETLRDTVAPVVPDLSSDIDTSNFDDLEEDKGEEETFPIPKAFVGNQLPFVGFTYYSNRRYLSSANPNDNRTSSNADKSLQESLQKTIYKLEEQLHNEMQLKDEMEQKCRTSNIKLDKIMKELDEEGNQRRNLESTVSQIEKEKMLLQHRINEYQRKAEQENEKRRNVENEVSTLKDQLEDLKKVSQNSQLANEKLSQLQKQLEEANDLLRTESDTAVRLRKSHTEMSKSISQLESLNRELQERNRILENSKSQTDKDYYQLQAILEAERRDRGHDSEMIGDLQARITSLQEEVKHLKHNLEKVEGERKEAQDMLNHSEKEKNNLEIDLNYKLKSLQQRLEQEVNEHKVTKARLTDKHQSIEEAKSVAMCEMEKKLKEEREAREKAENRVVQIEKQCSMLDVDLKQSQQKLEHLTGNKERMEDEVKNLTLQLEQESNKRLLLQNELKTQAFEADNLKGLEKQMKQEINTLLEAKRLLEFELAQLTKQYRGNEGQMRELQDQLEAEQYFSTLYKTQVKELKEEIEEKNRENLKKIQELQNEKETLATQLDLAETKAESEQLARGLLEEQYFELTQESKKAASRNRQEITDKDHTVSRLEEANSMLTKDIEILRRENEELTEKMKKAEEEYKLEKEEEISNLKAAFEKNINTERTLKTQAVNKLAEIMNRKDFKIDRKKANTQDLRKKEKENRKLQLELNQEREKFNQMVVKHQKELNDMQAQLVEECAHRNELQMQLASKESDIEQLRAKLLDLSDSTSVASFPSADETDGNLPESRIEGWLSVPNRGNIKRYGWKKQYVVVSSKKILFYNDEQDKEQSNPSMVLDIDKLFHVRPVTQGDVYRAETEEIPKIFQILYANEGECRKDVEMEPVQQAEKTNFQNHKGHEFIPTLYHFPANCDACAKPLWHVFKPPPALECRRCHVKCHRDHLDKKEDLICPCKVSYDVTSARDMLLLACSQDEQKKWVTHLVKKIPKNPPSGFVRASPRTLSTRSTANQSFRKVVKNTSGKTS

| Compound | IC50 (Recombinant ROCK1) [nM] | IC50 (Recombinant ROCK2) [nM] |
| --- | --- | --- |
| CNC(=O)OCc1cccc(C(CN)C(=O)Nc2cccc3c(-c4cn[nH]c4)c[nH]c23)c1 (single isomer, unassigned) [Example 51, 3-(1-((3-(1H-pyrazol-4-yl)-1H-indol-7-yl)amino)-3-amino-1-oxopropan-2-yl)benzyl methylcarbamate] | 33 | 22 |
| N#Cc1ccc(C(CN)C(=O)Nc2cccc3c(-c4cn[nH]c4)c[nH]c23)cc1 (single isomer, unassigned) [Example 58, N-(3-(1H-pyrazol-4-yl)-1H-indol-7-yl)-3-amino-2-(4-cyanophenyl)propanamide] | 136 | 48 |
| NCC(C(=O)Nc1cccc2c(-c3cn[nH]c3)c[nH]c12)c1ccc(CO)nc1 (single isomer, unassigned) [Example 61, N-(3-(1H-pyrazol-4-yl)-1H-indol-7-yl)-3-amino-2-(6-(hydroxymethyl)pyridin-3-yl)propanamide] | 26 | 8.9 |
| Cc1cncc(C(CN)C(=O)Nc2cccc3c(-c4cn[nH]c4)c[nH]c23)c1 (single isomer, unassigned) [Example 62, N-(3-(1H-pyrazol-4-yl)-1H-indol-7-yl)-3-amino-2-(5-methylpyridin-3-yl)propanamide] | 68 | 31 |
| CN1CCN(CC(C(=O)Nc2cccc3c(-c4cn[nH]c4)c[nH]c23)c2cccnc2)CC1 (single isomer, unassigned) [Example 66, N-(3-(1H-pyrazol-4-yl)-1H-indol-7-yl)-3-(4-methylpiperazin-1-yl)-2-(pyridin-3-yl)propanamide] | 604 | 310 |
| COc1cncc(C(CN2CCN(C)CC2)C(=O)Nc2cccc3c(-c4cn[nH]c4)c[nH]c23)c1 (single isomer, unassigned) [Example 111, N-(3-(1H-pyrazol-4-yl)-1H-indol-7-yl)-2-(5-methoxypyridin-3-yl)-3-(4-methylpiperazin-1-yl)propanamide] | 297 | 167 |
| NCC(C(=O)Nc1cccc2c(-c3cn[nH]c3)c[nH]c12)c1ccc(C(N)=O)cc1 (single isomer, unassigned) [Example 113, 4-(1-((3-(1H-pyrazol-4-yl)-1H-indol-7-yl)amino)-3-amino-1-oxopropan-2-yl)benzamide] | 110 | 43 |
| COc1cccc(C(CN2CCN(C)CC2)NC(=O)c2cccc3c(-c4cn[nH]c4)c[nH]c23)c1 (single isomer, unassigned) [Example 137, N-(1-(3-methoxyphenyl)-2-(4-methylpiperazin-1-yl)ethyl)-3-(1H-pyrazol-4-yl)-1H-indole-7-carboxamide] | 149 | 65 |
| COc1cccc(C(CN2CCN(C)CC2)NC(=O)c2cccc3c(-c4cn[nH]c4)c[nH]c23)c1 (single isomer, unassigned) [Example 138, N-(1-(3-methoxyphenyl)-2-(4-methylpiperazin-1-yl)ethyl)-3-(1H-pyrazol-4-yl)-1H-indole-7-carboxamide] | 73 | 23 |
| COc1cccc(C(NC(=O)c2cccc3c(-c4cn[nH]c4)c[nH]c23)C2CCN(C)CC2)c1 (single isomer, unassigned) [Example 141, N-((3-methoxyphenyl) (1-methylpiperidin-4-yl)methyl)-3-(1H-pyrazol-4-yl)-1H-indole-7-carboxamide] | 331 | 163 |
| COc1cccc(C(NC(=O)c2cccc3c(-c4cn[nH]c4)c[nH]c23)C2CCN(C)CC2)c1 (single isomer, unassigned) [Example 142, N-((3-methoxyphenyl) (1-methylpiperidin-4-yl)methyl)-3-(1H-pyrazol-4-yl)-1H-indole-7-carboxamide] | 113 | 37 |
| COc1ccc(C(CN)NC(=O)c2cccc3c(-c4cn[nH]c4)c[nH]c23)cc1 (single isomer, unassigned) [Example 144, N-(2-amino-1-(4-methoxyphenyl)ethyl)-3-(1H-pyrazol-4-yl)-1H-indole-7-carboxamide] | 60 | 32 |
| COc1ccc(C(CN)NC(=O)c2cccc3c(-c4cn[nH]c4)c[nH]c23)cc1 (single isomer, unassigned) [Example 145, N-(2-amino-1-(4-methoxyphenyl)ethyl)-3-(1H-pyrazol-4-yl)-1H-indole-7-carboxamide] | 46 | 20 |

The next molecules have a lower IC50 (Recombinant ROCK1) than those just listed; values first:

| IC50 (Recombinant ROCK1) [nM] | IC50 (Recombinant ROCK2) [nM] | Compound |
| --- | --- | --- |
| 0.32 | 0.22 | CNC(=O)OCc1cccc(C(CN)C(=O)Nc2cccc3c(-c4cn[nH]c4)c[nH]c23)c1 (single isomer, unassigned) [Example 50, 3-(1-((3-(1H-pyrazol-4-yl)-1H-indol-7-yl)amino)-3-amino-1-oxopropan-2-yl)benzyl methylcarbamate] |
| 0.43 | 0.24 | Cc1cncc(C(CN)C(=O)Nc2cccc3c(-c4cn[nH]c4)c[nH]c23)c1 (single isomer, unassigned) [Example 63, N-(3-(1H-pyrazol-4-yl)-1H-indol-7-yl)-3-amino-2-(5-methylpyridin-3-yl)propanamide] |
| 0.37 | 0.19 | NCC(C(=O)Nc1cccc2c(-c3cn[nH]c3)c[nH]c12)c1cccc(O)c1 (single isomer, unassigned) [Example 64, N-(3-(1H-pyrazol-4-yl)-1H-indol-7-yl)-3-amino-2-(3-hydroxyphenyl)propanamide] |
| 4.4 | 2.5 | NCC(C(=O)Nc1cccc2c(-c3cn[nH]c3)c[nH]c12)c1cccc(O)c1 (single isomer, unassigned) [Example 65, N-(3-(1H-pyrazol-4-yl)-1H-indol-7-yl)-3-amino-2-(3-hydroxyphenyl)propanamide] |
| 2.6 | 1.6 | CN1CCN(CC(C(=O)Nc2cccc3c(-c4cn[nH]c4)c[nH]c23)c2cccnc2)CC1 (single isomer, unassigned) [Example 67, N-(3-(1H-pyrazol-4-yl)-1H-indol-7-yl)-3-(4-methylpiperazin-1-yl)-2-(pyridin-3-yl)propanamide] |
| 4 | 1.5 | N#Cc1cccc([C@@H](N)C(=O)Nc2cccc3c(-c4cn[nH]c4)c[nH]c23)c1 (single isomer, unassigned) [Example 68, N-(3-(1H-pyrazol-4-yl)-1H-indol-7-yl)-2-amino-2-(3-cyanophenyl) acetamide] |
| 21 | 9.2 | N#Cc1cccc([C@H](N)C(=O)Nc2cccc3c(-c4cn[nH]c4)c[nH]c23)c1 (single isomer, unassigned) [Example 69, N-(3-(1H-pyrazol-4-yl)-1H-indol-7-yl)-2-amino-2-(3-cyanophenyl) acetamide] |
| 6.6 | 3.3 | COc1cncc(C(CN2CCN(C)CC2)C(=O)Nc2cccc3c(-c4cn[nH]c4)c[nH]c23)c1 (single isomer, unassigned) [Example 110, N-(3-(1H-pyrazol-4-yl)-1H-indol-7-yl)-2-(5-methoxypyridin-3-yl)-3-(4-methylpiperazin-1-yl)propanamide] |
| 1.3 | 0.47 | NCC(C(=O)Nc1cccc2c(-c3cn[nH]c3)c[nH]c12)c1ccc(C(N)=O)cc1 (single isomer, unassigned) [Example 112, 4-(1-((3-(1H-pyrazol-4-yl)-1H-indol-7-yl)amino)-3-amino-1-oxopropan-2-yl)benzamide] |
| 22 | 12 | N[C@@H](C(=O)Nc1cccc2c(-c3cn[nH]c3)c[nH]c12)c1cccnc1 (single isomer, unassigned) [Example 131, N-(3-(1H-pyrazol-4-yl)-1H-indol-7-yl)-2-amino-2-(pyridin-3-yl) acetamide] |
| 0.76 | 0.39 | N[C@H](C(=O)Nc1cccc2c(-c3cn[nH]c3)c[nH]c12)c1cccnc1 (single isomer, unassigned) [Example 132, N-(3-(1H-pyrazol-4-yl)-1H-indol-7-yl)-2-amino-2-(pyridin-3-yl) acetamide] |
| 5.5 | 3.1 | COc1cccc(C(CN)NC(=O)c2cccc3c(-c4cn[nH]c4)c[nH]c23)c1 (single isomer, unassigned) [Example 139, N-(2-amino-1-(3-methoxyphenyl)ethyl)-3-(1H-pyrazol-4-yl)-1H-indole-7-carboxamide] |
| 0.33 | 0.18 | CN1CCN(C[C@@H](C(=O)Nc2cccc3c(-c4cn[nH]c4)c[nH]c23)c2ccccc2)CC1 [Example 40] |
| 5.4 | 3.5 | COc1cccc([C@H](N)C(=O)Nc2cccc3c(-c4cn[nH]c4)c[nH]c23)c1 [Example 41, (2S)-2-amino-2-(3-methoxyphenyl)-N-[3-(1H-pyrazol-4-yl)-1H-indol-7-yl]acetamide] |
| 5.8 | 4.1 | NC[C@@H](Cc1ccccc1)C(=O)Nc1cccc2c(-c3cn[nH]c3)c[nH]c12 [Example 53, (2R)-3-amino-2-benzyl-N-[3-(1H-pyrazol-4-yl)-1H-indol-7-yl]propanamide] |
| 0.18 | 0.09 | NC[C@H](Cc1ccccc1)C(=O)Nc1cccc2c(-c3cn[nH]c3)c[nH]c12 [Example 54, (2S)-3-amino-2-benzyl-N-[3-(1H-pyrazol-4-yl)-1H-indol-7-yl]propanamide] |
| 15 | 11 | N[C@@H](Cc1c[nH]c2ccccc12)C(=O)Nc1cccc2c(-c3cn[nH]c3)c[nH]c12 [Example 109, (2S)-2-amino-3-(1H-indol-3-yl)-N-[3-(1H-pyrazol-4-yl)-1H-indol-7-yl]propanamide] |
| 21 | 5.7 | NC[C@@H](NC(=O)c1cncc2c(-c3cn[nH]c3)c[nH]c12)c1ccccc1 [Example 148, N-[(1S)-2-amino-1-phenyl-ethyl]-3-(1H-pyrazol-4-yl)-1H-pyrrolo[3,2-c]pyridine-7-carboxamide] |
